≈ marks a conversion by molar mass, not a printed value.
How the values were obtained:
[1] = tested on: BN10055ΔacrB; assay: MIC by broth dilution (intrinsic MIC); format: cell-based, Salmonella enterica; settings: Salmonella BN10055ΔacrB
Description: (§1) Susceptibilities to antibiotics and compounds were determined in microplates by broth dilution method, as previously described. Minimal Inhibitory Concentrations (MICs) were determined with an inoculum of 10^6 CFU in 200 μL of MH broth containing two-fold serial dilutions of each drug. […] All MIC determinations were repeated at least three times in independent experiments.

[2] = tested on: BN10055; assay: MIC by broth dilution (intrinsic MIC); format: cell-based, Salmonella enterica; settings: Salmonella enterica; Salmonella BN10055
Description: as §1

[3] = tested on: PAO1; assay: MIC of antibiotics ± test compound (MIC ratio), micro-broth dilution; format: cell-based, Pseudomonas aeruginosa; settings: compound at MIC/4
Description: as §1
(§2) The MICs of chloramphenicol±test compounds (MIC/4) were determined by the micro-broth dilution method (9). All MIC determinations were repeated at least three times in independent experiments. The MIC ratio corresponds to the ratio of the MIC of an antibiotic alone to the MIC of the same antibiotic in the presence of the tested compound (at MIC/4).
(§3) For reminder, the MIC ratio corresponds to the ratio of the MIC of the assessed antibiotic alone to the MIC of the same antibiotic in the presence of the tested compound (at MIC/4).

[4] = tested on: PA124; assay: as above; format: cell-based, Pseudomonas aeruginosa; settings: compound at MIC/4
Description: as §1, §2, §3

[5] = tested on: PAO1; assay: MIC by broth dilution (intrinsic MIC); format: cell-based; settings: Pseudomonas aeruginosa
Description: as §1

[6] = tested on: Ea27; assay: MIC by broth dilution (intrinsic MIC); format: cell-based; settings: Klebsiella aerogenes; Enterobacter Ea27
Description: as §1

[7] = tested on: PA124; assay: MIC by broth dilution (intrinsic MIC); format: cell-based; settings: Pseudomonas aeruginosa
Description: as §1

[8] = tested on: AB1; assay: MIC by broth dilution (intrinsic MIC); format: cell-based; settings: Acinetobacter baumannii
Description: as §1

[9] = tested on: AG100; assay: MIC by broth dilution (intrinsic MIC); format: cell-based; settings: Escherichia coli AG100
Description: as §1

[10] = tested on: ATCC 19606; assay: MIC by broth dilution (intrinsic MIC); format: cell-based; settings: Acinetobacter baumannii, ATCC19606; Acinetobacter ATCC 19606
Description: as §1

[11] = tested on: ATCC 13048; assay: MIC by broth dilution (intrinsic MIC); format: cell-based; settings: Klebsiella aerogenes, ATCC13048; Enterobacter ATCC 13048
Description: as §1

[12] = tested on: Ea27; assay: MIC of antibiotics ± test compound (MIC ratio), micro-broth dilution; format: cell-based, Enterobacter aerogenes; settings: compound at MIC/4; Example 4
Description: as §1, §2, §3

[13] = tested on: CM64; assay: as above; format: cell-based, Enterobacter aerogenes; settings: compound at MIC/4; Example 4
Description: as §1, §2, §3

[14] = tested on: ATCC 13048; assay: as above; format: cell-based, Enterobacter aerogenes; settings: compound at MIC/4; Example 4
Description: as §1, §2, §3

[15] = tested on: Ea289; assay: MIC by broth dilution (intrinsic MIC); format: cell-based, Enterobacter aerogenes; settings: Klebsiella aerogenes; Enterobacter Ea289
Description: as §1

[16] = tested on: Ea294; assay: MIC by broth dilution (intrinsic MIC); format: cell-based, Enterobacter aerogenes; settings: Klebsiella aerogenes, read-out: intrinsic MIC, Ea294
Description: as §1

[17] = tested on: Ea289ΔacrB (Ea294); assay: MIC of antibiotics ± test compound (MIC ratio), micro-broth dilution; format: cell-based, Enterobacter aerogenes; settings: compound at MIC/4
Description: (§4) The Enterobacter aerogenes Ea289 strain is a Kans derivative of the MDR clinical isolate Ea27, the acrB mutant, EaEP294, was constructed from Ea289. Multidrug-resistant Salmonella enterica serovar Typhimurium DT104 strains (BN10055) was isolated from cattle in France, the isogenic acrB derivative mutant, BN10055ΔacrB, was constructed from BN10055. Strains were maintained at −80° C. in 25% (v/v) glycerol for cryoprotection. Bacteria were routinely grown in Mueller-Hinton (MH) broth at 37° C.
as §1
(§5) […] All MIC determinations were repeated at least three times in independent experiments. The MIC ratio corresponds to the ratio of the MIC of an antibiotic alone to the MIC of the same antibiotic in the presence of the tested compound (at MIC/4).
as §3

[18] = tested on: AG100; assay: as above; format: cell-based, Escherichia coli; settings: compound at MIC/4; Example 4
Description: as §1, §2, §3

[19] = tested on: AB1; assay: as above; format: cell-based, Acinetobacter baumannii; settings: compound at MIC/4
Description: as §1, §2, §3

[20] = tested on: ATCC 19606; assay: as above; format: cell-based, Acinetobacter baumannii; settings: compound at MIC/4
Description: as §1, §2, §3

[21] = tested on: Enterobacter aerogenes MDR Ea289; assay: as above; format: cell-based; settings: compound at MIC/4, Set 2
[22] = tested on: Salmonella Thyphimurium MDR BN10055; assay: as above; format: cell-based, Salmonella enterica serovar Typhimurium; settings: compound at MIC/4; for MIC ratio (*) on BN10055 Chl: chloramphenicol; for MIC ratio (*) on BN10055 Nal: nalidixic acid
Description: as §4, §1, §5, §3

[23] = tested on: BN10055ΔacrB; assay: as above; format: cell-based, Salmonella enterica serovar Typhimurium; settings: compound at MIC/4
Description: as §4, §1, §5, §3

CC(C)=CCCC(C)=CCNCCCN(CCCN)CCCN (racemic) [Compound 11, {3-[Bis-(3-amino-propyl)-amino]-propyl}-(3,7-dimethyl-octa-2,6-dienyl)-amine]
intrinsic MIC, BN10055ΔacrB [1]: 15 µM
MIC [2]: 31 µM (≈ 10.1 µg/mL)
MIC ratio Cefepime Pseudomonas aeruginosa PAO1 [3]: 1
MIC ratio Doxycycline Pseudomonas aeruginosa PAO1 [3]: >16
MIC ratio Cefepime Pseudomonas aeruginosa PA124 [4]: 1
MIC ratio Chloramphénicol Pseudomonas aeruginosa PA124 [4]: 128
MIC ratio Doxycycline Pseudomonas aeruginosa PA124 [4]: >32
MIC ratio Tetracycline Pseudomonas aeruginosa PA124 [4]: 8
MIC [5]: 62 µM (≈ 20.1 µg/mL)
MIC [6]: 31 µM (≈ 10.1 µg/mL)
MIC [7]: 62 µM (≈ 20.1 µg/mL)
MIC [8]: 31 µM (≈ 10.1 µg/mL)
MIC [9]: 31 µM (≈ 10.1 µg/mL)
MIC [10]: 62 µM (≈ 20.1 µg/mL)
MIC [11]: 31 µM (≈ 10.1 µg/mL)
MIC ratio Chloramphenicol E. aerogenes Ea27 [12]: >4
MIC ratio Doxycycline E. aerogenes Ea27 [12]: 32
MIC ratio Oxacillin E. aerogenes Ea27 [12]: 1
MIC ratio Chloramphenicol E. aerogenes CM64 [13]: 16
MIC ratio Oxacillin E. aerogenes CM64 [13]: >8
MIC ratio Chloramphenicol E. aerogenes ATCC13048 [14]: >32
MIC ratio Doxycycline E. aerogenes ATCC13048 [14]: 64
MIC ratio Oxacillin E. aerogenes ATCC13048 [14]: >8
MIC [15]: 31 µM (≈ 10.1 µg/mL)
MIC [16]: 15 µM (≈ 4.87 µg/mL)
MIC ratio(*) on Ea289ΔacrB Chl ([17]; chloramphenicol, Set 1): 16
MIC ratio Chloramphenicol E. aerogenes Ea294 ([17]; Example 4): 16
MIC ratio Doxycycline E. aerogenes Ea294 ([17]; Example 4): 4
MIC ratio Nalidixic acid E. aerogenes Ea294 ([17]; Example 4): 8
MIC ratio(*) on Ea289ΔacrB Ery ([17]; erythromycin, Set 1): 16
MIC ratio(*) on Ea289ΔacrB Nal ([17]; nalidixic acid, Set 1): 8
MIC ratio Chloramphenicol E. Coli AG100 [18]: 16
MIC ratio Doxycycline E. Coli AG100 [18]: >32
MIC ratio Oxacillin E. Coli AG100 [18]: 16
MIC ratio Cefepime Acinetobacter baumannii AB1 [19]: 1
MIC ratio Chloramphénicol Acinetobacter baumannii AB1 [19]: 16
MIC ratio Doxycycline Acinetobacter baumannii AB1 [19]: 2
MIC ratio Tetracycline Acinetobacter baumannii AB1 [19]: 2
MIC ratio Cefepime Acinetobacter baumannii ATCC19606 [20]: 4-8
MIC ratio Chloramphénicol Acinetobacter baumannii ATCC19606 [20]: 8
MIC ratio Doxycycline Acinetobacter baumannii ATCC19606 [20]: 1
MIC ratio Tetracycline Acinetobacter baumannii ATCC19606 [20]: 8
MIC ratio (*) on Ea289 Dox ([21]; doxycycline): 32
MIC ratio (*) on Ea289 Nal ([21]; nalidixic acid): 8
MIC ratio (*) on BN10055 Chl ([22]; Set 1): 16
MIC ratio (*) on BN10055 Chl ([22]; Set 2): 16
MIC ratio Chloramphenicol S. enterica BN10055 ([22]; Example 4): 16
MIC ratio Doxycycline S. enterica BN10055 ([22]; Example 4): 16
MIC ratio Nalidixic acid S. enterica BN10055 ([22]; Example 4): 128
MIC ratio (*) on BN10055 Dox ([22]; doxycycline, Set 2): 16
MIC ratio(*) on BN10055 Ery ([22]; erythromycin, Set 1): 8
MIC ratio (*) on BN10055 Nal ([22]; Set 1): 128
MIC ratio (*) on BN10055 Nal ([22]; Set 2): 128
MIC ratio(*) on BN10055ΔacrB Chl ([23]; chloramphenicol, Set 1): 2
MIC ratio Chloramphenicol S. enterica BN1005ΔacrB ([23]; Example 4): 2
MIC ratio Doxycycline S. enterica BN1005ΔacrB ([23]; Example 4): 2
MIC ratio Nalidixic acid S. enterica BN1005ΔacrB ([23]; Example 4): 2
MIC ratio(*) on BN10055ΔacrB Ery ([23]; erythromycin, Set 1): 8
MIC ratio(*) on BN10055ΔacrB Nal ([23]; nalidixic acid, Set 1): 2
